Assay results: ChEMBL document CHEMBL1743141, “Membrane transporters in drug development” (Nat Rev Drug Discov, 2010)

Legend:
Assay type in all cases: ADME
[1] = target: T1, Solute carrier family 22 member 2 (Homo sapiens, UniProt O15244); assay: Inhibitors of transporters of clinical importance in the absorption and disposition of drugs, OCT2
T1 sequence (O15244 whole entry): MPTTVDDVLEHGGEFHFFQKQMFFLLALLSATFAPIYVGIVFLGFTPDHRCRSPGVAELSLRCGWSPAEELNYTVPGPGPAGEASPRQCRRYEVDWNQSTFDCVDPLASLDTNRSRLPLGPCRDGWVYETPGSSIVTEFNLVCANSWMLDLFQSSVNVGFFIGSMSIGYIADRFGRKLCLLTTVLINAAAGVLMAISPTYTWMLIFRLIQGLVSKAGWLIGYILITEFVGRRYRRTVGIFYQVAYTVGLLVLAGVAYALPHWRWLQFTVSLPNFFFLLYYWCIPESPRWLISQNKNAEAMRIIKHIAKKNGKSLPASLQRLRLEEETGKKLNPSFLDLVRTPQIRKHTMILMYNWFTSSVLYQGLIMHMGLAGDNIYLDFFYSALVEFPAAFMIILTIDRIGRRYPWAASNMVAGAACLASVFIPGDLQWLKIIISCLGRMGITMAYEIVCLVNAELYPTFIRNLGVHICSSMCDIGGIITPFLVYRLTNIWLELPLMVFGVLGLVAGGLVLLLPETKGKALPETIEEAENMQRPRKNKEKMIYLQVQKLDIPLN

[2] = target: Phosphatidylcholine translocator ABCB4 (Homo sapiens, UniProt P21439); assay: Substrates of transporters of clinical importance in the absorption and disposition of drugs, MDR3
[3] = target: ATP-dependent translocase ABCB1 (Homo sapiens, UniProt P08183); assay: Substrates of transporters of clinical importance in the absorption and disposition of drugs, MDR1
[4] = target: T2, Organic anion transporter 3 (Homo sapiens, UniProt Q8TCC7); assay: Substrates of transporters of clinical importance in the absorption and disposition of drugs, OAT3
T2 sequence (Q8TCC7 whole entry): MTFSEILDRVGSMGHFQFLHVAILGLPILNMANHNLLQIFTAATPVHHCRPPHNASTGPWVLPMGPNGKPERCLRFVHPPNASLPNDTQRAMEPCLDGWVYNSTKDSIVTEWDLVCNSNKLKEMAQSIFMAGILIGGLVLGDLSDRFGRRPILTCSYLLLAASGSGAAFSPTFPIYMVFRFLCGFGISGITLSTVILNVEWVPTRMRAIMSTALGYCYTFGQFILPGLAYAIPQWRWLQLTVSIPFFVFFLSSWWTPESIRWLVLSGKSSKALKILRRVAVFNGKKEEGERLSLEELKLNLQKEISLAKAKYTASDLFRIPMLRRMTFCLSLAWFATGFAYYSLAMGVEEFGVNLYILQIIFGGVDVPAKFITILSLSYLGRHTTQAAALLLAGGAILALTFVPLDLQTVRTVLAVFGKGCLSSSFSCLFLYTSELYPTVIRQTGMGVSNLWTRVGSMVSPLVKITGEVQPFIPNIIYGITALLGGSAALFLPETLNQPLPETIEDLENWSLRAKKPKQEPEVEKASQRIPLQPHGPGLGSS

[5] = target: T3, Solute carrier organic anion transporter family member 1A2 (Homo sapiens, UniProt P46721); assay: Substrates of transporters of clinical importance in the absorption and disposition of drugs, OATP1A2
T3 sequence (P46721 whole entry): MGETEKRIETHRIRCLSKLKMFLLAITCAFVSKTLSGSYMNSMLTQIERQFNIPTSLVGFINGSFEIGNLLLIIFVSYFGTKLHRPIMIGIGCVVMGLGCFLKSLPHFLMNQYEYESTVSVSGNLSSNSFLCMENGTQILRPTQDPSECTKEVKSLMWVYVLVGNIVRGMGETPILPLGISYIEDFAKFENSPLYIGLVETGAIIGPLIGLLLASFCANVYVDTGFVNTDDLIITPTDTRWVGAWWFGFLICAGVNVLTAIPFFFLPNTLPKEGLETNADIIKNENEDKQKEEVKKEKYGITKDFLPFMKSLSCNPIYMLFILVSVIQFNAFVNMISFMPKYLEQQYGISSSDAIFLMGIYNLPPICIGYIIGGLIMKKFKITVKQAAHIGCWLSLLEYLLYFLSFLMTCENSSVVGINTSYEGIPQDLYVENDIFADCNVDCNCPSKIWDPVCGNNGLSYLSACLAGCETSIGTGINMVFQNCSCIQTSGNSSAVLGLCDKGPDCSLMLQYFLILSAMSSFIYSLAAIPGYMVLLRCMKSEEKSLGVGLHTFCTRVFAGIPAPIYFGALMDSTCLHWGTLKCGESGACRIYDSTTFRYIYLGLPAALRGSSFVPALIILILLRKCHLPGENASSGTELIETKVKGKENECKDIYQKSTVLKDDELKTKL

[6] = target: T4, Solute carrier organic anion transporter family member 2B1 (Homo sapiens, UniProt O94956); assay: Substrates of transporters of clinical importance in the absorption and disposition of drugs, OATP2B1
T4 sequence (O94956 whole entry): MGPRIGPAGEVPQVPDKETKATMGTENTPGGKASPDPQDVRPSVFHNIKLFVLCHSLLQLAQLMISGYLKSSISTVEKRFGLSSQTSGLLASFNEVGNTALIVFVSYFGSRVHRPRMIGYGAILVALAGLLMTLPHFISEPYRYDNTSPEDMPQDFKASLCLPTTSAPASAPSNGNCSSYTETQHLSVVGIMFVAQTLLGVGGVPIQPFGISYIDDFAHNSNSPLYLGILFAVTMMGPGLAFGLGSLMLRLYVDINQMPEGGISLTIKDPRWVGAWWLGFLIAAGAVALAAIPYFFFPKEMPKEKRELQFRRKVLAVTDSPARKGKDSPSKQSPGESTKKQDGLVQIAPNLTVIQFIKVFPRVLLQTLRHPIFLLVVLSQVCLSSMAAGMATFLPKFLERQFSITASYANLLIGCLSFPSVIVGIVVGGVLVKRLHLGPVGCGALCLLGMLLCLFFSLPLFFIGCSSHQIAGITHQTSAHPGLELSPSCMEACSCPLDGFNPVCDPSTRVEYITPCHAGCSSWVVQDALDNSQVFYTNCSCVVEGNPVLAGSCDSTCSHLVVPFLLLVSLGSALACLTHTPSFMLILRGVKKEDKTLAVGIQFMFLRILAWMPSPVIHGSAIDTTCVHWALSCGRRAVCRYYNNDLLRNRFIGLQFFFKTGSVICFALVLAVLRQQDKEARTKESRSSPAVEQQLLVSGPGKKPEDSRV

[7] = target: T5, Solute carrier organic anion transporter family member 1B1 (Homo sapiens, UniProt Q9Y6L6); assay: Substrates of transporters of clinical importance in the absorption and disposition of drugs, OATP1B1
T5 sequence (Q9Y6L6 whole entry): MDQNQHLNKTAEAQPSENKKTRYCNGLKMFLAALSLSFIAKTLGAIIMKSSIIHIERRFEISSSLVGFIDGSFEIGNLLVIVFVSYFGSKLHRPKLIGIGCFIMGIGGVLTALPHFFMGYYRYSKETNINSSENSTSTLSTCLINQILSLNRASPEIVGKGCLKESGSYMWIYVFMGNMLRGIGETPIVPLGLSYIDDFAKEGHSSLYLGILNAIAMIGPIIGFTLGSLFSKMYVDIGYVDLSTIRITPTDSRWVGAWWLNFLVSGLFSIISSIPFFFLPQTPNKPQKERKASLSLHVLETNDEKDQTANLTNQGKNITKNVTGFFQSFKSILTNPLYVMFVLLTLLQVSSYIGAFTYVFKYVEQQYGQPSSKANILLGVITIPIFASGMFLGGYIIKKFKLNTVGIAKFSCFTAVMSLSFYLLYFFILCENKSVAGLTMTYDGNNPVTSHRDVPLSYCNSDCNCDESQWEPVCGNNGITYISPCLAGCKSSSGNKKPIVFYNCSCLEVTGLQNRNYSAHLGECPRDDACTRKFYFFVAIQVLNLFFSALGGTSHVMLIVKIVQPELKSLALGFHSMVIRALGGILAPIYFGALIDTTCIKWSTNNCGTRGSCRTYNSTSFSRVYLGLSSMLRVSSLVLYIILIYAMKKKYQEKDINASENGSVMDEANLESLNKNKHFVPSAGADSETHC

[8] = target: T6, Solute carrier organic anion transporter family member 1B3 (Homo sapiens, UniProt Q9NPD5); assay: Substrates of transporters of clinical importance in the absorption and disposition of drugs, OATP1B3
T6 sequence (Q9NPD5 whole entry): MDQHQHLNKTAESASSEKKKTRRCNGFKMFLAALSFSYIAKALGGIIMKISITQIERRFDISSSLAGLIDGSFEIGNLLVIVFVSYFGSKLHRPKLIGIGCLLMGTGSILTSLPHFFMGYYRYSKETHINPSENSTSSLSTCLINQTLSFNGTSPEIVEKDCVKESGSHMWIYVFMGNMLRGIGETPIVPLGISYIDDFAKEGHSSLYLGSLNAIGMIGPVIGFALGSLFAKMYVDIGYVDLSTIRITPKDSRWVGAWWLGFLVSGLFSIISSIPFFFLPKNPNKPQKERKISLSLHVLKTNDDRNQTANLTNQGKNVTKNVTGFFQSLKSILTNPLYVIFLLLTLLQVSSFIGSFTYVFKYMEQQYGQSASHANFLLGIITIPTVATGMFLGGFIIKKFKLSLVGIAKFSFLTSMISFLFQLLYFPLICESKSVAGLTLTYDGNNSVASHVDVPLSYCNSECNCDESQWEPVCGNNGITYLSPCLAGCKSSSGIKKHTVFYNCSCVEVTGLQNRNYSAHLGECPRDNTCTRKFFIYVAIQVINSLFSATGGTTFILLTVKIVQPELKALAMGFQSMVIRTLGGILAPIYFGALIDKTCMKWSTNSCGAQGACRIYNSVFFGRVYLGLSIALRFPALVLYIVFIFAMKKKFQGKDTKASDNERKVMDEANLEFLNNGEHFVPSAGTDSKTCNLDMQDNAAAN

[9] = target: T7, Solute carrier family 22 member 1 (Homo sapiens, UniProt O15245); assay: Substrates of transporters of clinical importance in the absorption and disposition of drugs, OCT1
T7 sequence (O15245 whole entry): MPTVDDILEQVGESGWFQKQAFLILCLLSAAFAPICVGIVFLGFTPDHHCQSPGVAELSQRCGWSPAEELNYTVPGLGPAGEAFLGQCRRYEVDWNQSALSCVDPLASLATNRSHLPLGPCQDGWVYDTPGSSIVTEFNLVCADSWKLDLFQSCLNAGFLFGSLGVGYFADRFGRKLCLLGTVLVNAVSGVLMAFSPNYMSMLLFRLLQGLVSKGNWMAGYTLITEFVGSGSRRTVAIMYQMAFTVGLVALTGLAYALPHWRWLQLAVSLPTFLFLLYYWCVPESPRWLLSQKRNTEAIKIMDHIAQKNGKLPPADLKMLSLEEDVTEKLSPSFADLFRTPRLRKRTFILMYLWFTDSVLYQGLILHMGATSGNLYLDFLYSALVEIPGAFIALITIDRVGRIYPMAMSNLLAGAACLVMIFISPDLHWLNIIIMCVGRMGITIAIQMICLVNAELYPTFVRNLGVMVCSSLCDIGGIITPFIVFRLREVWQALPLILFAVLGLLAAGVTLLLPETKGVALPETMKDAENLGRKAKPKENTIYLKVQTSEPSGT

[10] = target: T1, Solute carrier family 22 member 2; assay: Substrates of transporters of clinical importance in the absorption and disposition of drugs, OCT2

Chain of Phosphatidylcholine translocator ABCB4 (P21439 whole entry): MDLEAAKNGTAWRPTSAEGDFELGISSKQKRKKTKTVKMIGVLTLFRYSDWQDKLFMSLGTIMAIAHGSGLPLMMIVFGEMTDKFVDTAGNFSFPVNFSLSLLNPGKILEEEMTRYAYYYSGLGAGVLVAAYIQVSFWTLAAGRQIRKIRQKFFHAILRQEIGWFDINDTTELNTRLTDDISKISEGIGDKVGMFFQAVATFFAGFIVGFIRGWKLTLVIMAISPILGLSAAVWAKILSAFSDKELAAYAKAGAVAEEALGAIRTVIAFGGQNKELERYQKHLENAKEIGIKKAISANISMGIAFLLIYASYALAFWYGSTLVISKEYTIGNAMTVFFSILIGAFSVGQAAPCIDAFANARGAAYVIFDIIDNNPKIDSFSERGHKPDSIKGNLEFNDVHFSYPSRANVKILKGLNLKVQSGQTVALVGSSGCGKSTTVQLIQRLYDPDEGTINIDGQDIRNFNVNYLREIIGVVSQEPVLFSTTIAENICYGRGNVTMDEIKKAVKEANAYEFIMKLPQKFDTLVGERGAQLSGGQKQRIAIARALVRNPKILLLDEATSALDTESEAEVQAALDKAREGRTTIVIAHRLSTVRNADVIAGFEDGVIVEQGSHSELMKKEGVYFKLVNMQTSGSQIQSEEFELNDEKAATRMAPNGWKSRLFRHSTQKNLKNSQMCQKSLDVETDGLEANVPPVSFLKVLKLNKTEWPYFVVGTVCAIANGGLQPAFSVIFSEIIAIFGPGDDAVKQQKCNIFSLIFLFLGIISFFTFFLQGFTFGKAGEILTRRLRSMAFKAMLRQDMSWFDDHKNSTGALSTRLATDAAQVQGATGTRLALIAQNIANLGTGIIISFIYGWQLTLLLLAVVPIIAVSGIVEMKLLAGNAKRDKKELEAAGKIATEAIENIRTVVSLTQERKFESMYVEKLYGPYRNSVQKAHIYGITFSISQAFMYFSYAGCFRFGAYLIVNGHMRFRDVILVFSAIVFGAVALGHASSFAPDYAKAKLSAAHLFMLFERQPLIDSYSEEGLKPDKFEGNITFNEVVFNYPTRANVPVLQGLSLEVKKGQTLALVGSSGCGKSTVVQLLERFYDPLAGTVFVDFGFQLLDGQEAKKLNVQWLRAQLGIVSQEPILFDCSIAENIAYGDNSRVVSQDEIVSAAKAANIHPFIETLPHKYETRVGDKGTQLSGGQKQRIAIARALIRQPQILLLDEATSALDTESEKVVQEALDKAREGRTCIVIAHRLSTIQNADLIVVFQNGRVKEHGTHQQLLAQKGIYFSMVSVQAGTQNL
Chain of ATP-dependent translocase ABCB1 (P08183 whole entry): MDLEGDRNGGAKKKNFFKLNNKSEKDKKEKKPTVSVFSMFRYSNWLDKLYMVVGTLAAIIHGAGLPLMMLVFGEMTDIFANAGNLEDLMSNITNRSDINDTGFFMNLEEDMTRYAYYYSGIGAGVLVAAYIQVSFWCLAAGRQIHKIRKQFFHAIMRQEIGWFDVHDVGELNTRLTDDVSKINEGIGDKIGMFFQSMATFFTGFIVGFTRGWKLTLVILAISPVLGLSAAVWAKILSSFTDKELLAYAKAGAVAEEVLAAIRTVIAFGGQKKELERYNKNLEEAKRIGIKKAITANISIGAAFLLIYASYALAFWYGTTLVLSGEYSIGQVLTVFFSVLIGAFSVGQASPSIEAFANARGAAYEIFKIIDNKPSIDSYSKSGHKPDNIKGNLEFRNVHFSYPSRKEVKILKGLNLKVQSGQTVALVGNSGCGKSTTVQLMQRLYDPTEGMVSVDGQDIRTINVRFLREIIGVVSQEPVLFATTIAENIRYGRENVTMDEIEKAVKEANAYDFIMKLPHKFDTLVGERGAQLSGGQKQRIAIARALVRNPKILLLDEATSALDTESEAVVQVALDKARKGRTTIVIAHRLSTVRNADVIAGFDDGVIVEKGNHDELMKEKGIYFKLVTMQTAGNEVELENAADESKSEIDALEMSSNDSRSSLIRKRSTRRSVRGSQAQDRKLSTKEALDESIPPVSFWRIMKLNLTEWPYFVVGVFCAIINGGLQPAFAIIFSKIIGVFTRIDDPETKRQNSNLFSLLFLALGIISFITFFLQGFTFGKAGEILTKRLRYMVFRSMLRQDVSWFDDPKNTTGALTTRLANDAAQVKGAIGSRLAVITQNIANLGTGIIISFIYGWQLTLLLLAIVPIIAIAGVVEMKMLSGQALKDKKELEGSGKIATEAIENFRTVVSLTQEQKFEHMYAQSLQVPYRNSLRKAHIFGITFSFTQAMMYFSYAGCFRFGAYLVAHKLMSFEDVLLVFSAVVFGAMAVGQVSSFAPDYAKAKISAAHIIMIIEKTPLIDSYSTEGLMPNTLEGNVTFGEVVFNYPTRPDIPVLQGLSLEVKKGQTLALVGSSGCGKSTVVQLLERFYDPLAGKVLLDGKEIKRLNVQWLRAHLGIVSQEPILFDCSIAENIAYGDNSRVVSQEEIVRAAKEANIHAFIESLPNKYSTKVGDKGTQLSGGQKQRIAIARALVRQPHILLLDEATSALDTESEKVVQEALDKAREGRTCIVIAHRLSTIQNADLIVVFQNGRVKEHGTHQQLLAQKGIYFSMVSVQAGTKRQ

Molecule: O=C(O)COCCN1CCN(C(c2ccccc2)c2ccc(Cl)cc2)CC1 (stereo unspecified) [CETIRIZINE]
- Activity [1]: transporter inhibitor

Molecule: CN/C(=N/CCSCc1nc[nH]c1C)NC#N [CIMETIDINE]
- Activity [1]: transporter inhibitor

Molecule: C[C@H]1O[C@@H](O[C@H]2[C@@H](O)C[C@H](O[C@H]3[C@@H](O)C[C@H](O[C@H]4CC[C@@]5(C)[C@H](CC[C@@H]6[C@@H]5C[C@@H](O)[C@]5(C)[C@@H](C7=CC(=O)OC7)CC[C@]65O)C4)O[C@@H]3C)O[C@@H]2C)C[C@H](O)[C@@H]1O [DIGOXIN]
- Activity [2]: transporter substrate
- Activity [3]: transporter substrate

Molecule: C[C@]12CC[C@@H]3c4ccc(OS(=O)(=O)O)cc4CC[C@H]3[C@@H]1CCC2=O [ESTRONE SULFURIC ACID]
- Activity [4]: transporter substrate
- Activity [5]: transporter substrate
- Activity [6]: transporter substrate
- Activity [7]: transporter substrate

Molecule: CC(=O)O[C@H]1C(=O)[C@@]2(C)[C@H]([C@H](OC(=O)c3ccccc3)[C@]3(O)C[C@H](OC(=O)[C@H](O)[C@@H](NC(=O)c4ccccc4)c4ccccc4)C(C)=C1C3(C)C)[C@]1(OC(C)=O)CO[C@@H]1C[C@@H]2O [PACLITAXEL]
- Activity [2]: transporter substrate
- Activity [3]: transporter substrate

Molecule: CCCCCCCCCCCCCCSCC(=O)OC[C@H](COP(=O)([O-])OCC[N+](C)(C)C)OC(=O)CSCCCCCCCCCCCCCC [PHOSPHATIDYLCHOLINE]
- Activity [2]: transporter substrate

Molecule: Cc1cccc(C)c1NC(=O)CC12CCCN1CCC2 [PILSICAINIDE]
- Activity [1]: transporter inhibitor

Molecule: O=C1OC(c2ccc(O)c(S(=O)(=O)[O-])c2)(c2ccc(O)c(S(=O)(=O)[O-])c2)c2c(Br)c(Br)c(Br)c(Br)c21.[Na+].[Na+] [SULFOBROMOPHTHALEIN SODIUM]
- Activity [5]: transporter substrate
- Activity [8]: transporter substrate
- Activity [6]: transporter substrate
- Activity [7]: transporter substrate

Molecule: C[C@]12CC[C@H]3[C@@H](CCC4=CC(=O)CC[C@@]43C)[C@@H]1CC[C@@H]2O [TESTOSTERONE]
- Activity [1]: transporter inhibitor

Molecule: CC[C@]1(O)C[C@@H]2CN(CCc3c([nH]c4ccccc34)[C@@](C(=O)OC)(c3cc4c(cc3OC)N(C)[C@H]3[C@@](O)(C(=O)OC)[C@H](OC(C)=O)[C@]5(CC)C=CCN6CC[C@]43[C@@H]65)C2)C1 [VINBLASTINE]
- Activity [2]: transporter substrate
- Activity [3]: transporter substrate

Molecule: OXALIPLATIN
- Activity [9]: transporter substrate
- Activity [10]: transporter substrate
